From patent publication US20250114460A1, “NOVEL PLK1 DEGRADATION INDUCING COMPOUND” (UPPTHERA, INC., priority 2021, published 2025)

Experiments:
Format in all cases: cell-based
NCI-H526 cell line = test: Cell viability assay for H526 cell (EZ-Cytox); conditions: Homo sapiens, NCI-H526, 120 h; H526 cells, 5 days, 3000 nM to 0.46 nM
How it was run: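 NCI-H526 cells were exposed to compound in CO2 incubator culture for 5 days. Viability was read by EZ-Cytox absorbance at 450 nm after 3 min shaking, giving IC50 values.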

PLK1 = molecular target: T1, PLK1 (Homo sapiens, UniProt P53350); test: Luciferase assay for PLK1 in HeLa LgBit (Plk1-HiBit KI) cell line; conditions: 300 nM compound, luminescence after 9 hours
T1 construct: endogenous in cells; host or cells: HeLa LgBit (Plk1-HiBit KI): HeLa stably expressing LgBit, with a CRISPR/Cas9 knock-in of HiBit at the endogenous PLK1 locus
T1 sequence (P53350 whole entry): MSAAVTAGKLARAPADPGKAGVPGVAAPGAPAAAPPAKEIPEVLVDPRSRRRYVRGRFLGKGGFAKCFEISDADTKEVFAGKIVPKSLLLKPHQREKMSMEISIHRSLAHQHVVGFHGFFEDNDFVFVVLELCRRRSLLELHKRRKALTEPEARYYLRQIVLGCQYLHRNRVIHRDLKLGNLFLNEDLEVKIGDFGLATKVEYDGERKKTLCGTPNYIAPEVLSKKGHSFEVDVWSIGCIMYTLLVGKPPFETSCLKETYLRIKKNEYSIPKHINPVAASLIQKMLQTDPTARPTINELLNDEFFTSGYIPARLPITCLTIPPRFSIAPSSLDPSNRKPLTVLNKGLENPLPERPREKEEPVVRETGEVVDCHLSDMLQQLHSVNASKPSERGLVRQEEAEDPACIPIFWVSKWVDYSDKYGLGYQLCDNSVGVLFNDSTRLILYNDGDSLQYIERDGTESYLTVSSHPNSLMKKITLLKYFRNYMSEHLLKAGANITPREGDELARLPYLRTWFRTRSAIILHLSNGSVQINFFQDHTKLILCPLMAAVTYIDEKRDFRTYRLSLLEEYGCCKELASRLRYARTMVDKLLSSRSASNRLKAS
How it was run: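 HeLa cells stably expressing LgBit, with HiBit knocked in at the C-terminus of endogenous Plk1, released from a 24 h 2 mM thymidine block and grown 18 h. Endurazine added, then compound at 300 nM; luminescence tracked in real time, expressed as ratio to DMSO.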

MRC-5 cell line = test: Cell viability assay for MRC-5 cell line (EZ-Cytox); conditions: Homo sapiens, MRC5, 120 h; MRC-5 normal cell line, 5 days, 10000 nM to 1.52 nM; N.D. = no cytotoxicity until 10 μM; read-out: Activity: IC50 value of Exemplary Compound to MRC-5 cell line
Method: 4. Cell Viability Assay for MRC-5 Cell Line
(1) Culture of MRC-5 Cell Line
Passage of cultured cells was maintained within P15.
(2) Treatment of Compounds of the Present Invention
Then, it was cultured in 37° C.
(3) Cytotoxicity Experiment
CO2 incubator for 4 hours.

| Structure (SMILES) | Activity: ratio of the luminescense value of each Exemplary Compound treatment group to DMSO treatment group (PLK1) | IC50 (NCI-H526 cell line) [µM] | IC50 (MRC-5 cell line) [µM] |
| --- | --- | --- | --- |
| COc1cc(C(=O)N2CCN(CCCCN3CCN(c4ccc5c(c4)C(=O)N(C4CCC(=O)NC4=O)C5=O)CC3)CC2)ccc1Nc1ncc2c(n1)N(C1CCCC1)CC(F)(F)C(=O)N2C (stereo not drawn) [Compound 91, 5-(4-(4-(4-(4-((9-cyclopentyl-7,7-difluoro-5-methyl-6-oxo-6,7,8,9-tetrahydro-5H-pyrimido[4,5-b][1,4]diazepin-2-yl)amino)-3-methoxybenzoyl)piperazin-1-yl)butyl)piperazin-1-yl)-2-(2,6-dioxopiperidin-3-yl)isoindoline-1,3-dione] | ++ (++<0.6) | < 0.4 | > 10 |
| COc1cc(C(=O)NN2CC(CN3CCN(c4cccc5c4C(=O)N(C4CCC(=O)NC4=O)C5=O)CC3)C2)ccc1Nc1ncc2c(n1)N(C(C)C)CC(F)(F)C(=O)N2C (stereo not drawn) [Compound 161, 4-((7,7-difluoro-9-isopropyl-5-methyl-6-oxo-6,7,8,9-tetrahydro-5H-pyrimido[4,5-b][1,4]diazepin-2-yl)amino)-N-(3-((4-(2-(2,6-dioxopiperidin-3-yl)-1,3-dioxoisoindolin-4-yl)piperazin-1-yl)methyl)azetidin-1-yl)-3-methoxybenzamide] | ++ (++<0.6) | < 0.03 | > 10 |
| CN1C(=O)C(F)(F)CN(C2CCCC2)c2nc(Nc3ccc(C(=O)NC4CCN(C(=O)CCN5CCN(c6cccc7c6C(=O)N(C6CCC(=O)NC6=O)C7=O)CC5)CC4)cc3OC(F)(F)F)ncc21 (stereo not drawn) [Compound 74, 4-((9-cyclopentyl-7,7-difluoro-5-methyl-6-oxo-6,7,8,9-tetrahydro-5H-pyrimido[4,5-b][1,4]diazepin-2-yl)amino)-N-(1-(3-(4-(2-(2,6-dioxopiperidin-3-yl)-1,3-dioxoisoindolin-4-yl)piperazin-1-yl)propanoyl)piperidin-4-yl)-3-(trifluoromethoxy)benzamide] | ++ (++<0.6) | < 0.2 | > 10 |
| COc1cc(C(=O)N[C@H]2CC[C@H](N(C)CC3CCN(c4ccc5c(c4)C(=O)N(C4CCC(=O)NC4=O)C5=O)CC3)CC2)ccc1Nc1ncc2c(n1)N(C(C)C)CC(F)(F)C(=O)N2C (stereo partly drawn) [Compound 153, 4-((7,7-difluoro-9-isopropyl-5-methyl-6-oxo-6,7,8,9-tetrahydro-5H-pyrimido[4,5-b][1,4]diazepin-2-yl)amino)-N-((1r,4r)-4-(((1-(2-(2,6-dioxopiperidin-3-yl)-1,3-dioxoisoindolin-5-yl)piperidin-4-yl)methyl)(methyl)amino)cyclohexyl)-3-methoxybenzamide] | ++ (++<0.6) | < 0.05 | 15.8 |
| COc1cc(C(=O)NC2CCC(N(C)C3CCN(c4cccc5c4C(=O)N(C4CCC(=O)NC4=O)C5=O)CC3)C2)ccc1Nc1ncc2c(n1)N(C(C)C)CC(F)(F)C(=O)N2C (stereo not drawn) [Compound 165, 4-((7,7-difluoro-9-isopropyl-5-methyl-6-oxo-6,7,8,9-tetrahydro-5H-pyrimido[4,5-b][1,4]diazepin-2-yl)amino)-N-(3-((1-(2-(2,6-dioxopiperidin-3-yl)-1,3-dioxoisoindolin-4-yl)piperidin-4-yl)(methyl)amino)cyclopentyl)-3-methoxybenzamide] | ++ (++<0.6) | < 0.03 | > 10 |
| COc1cc(C(=O)NC2CCN(C(=O)CCN3CCN(c4ccc5c(c4)CN(C4CCC(=O)NC4=O)C5=O)CC3)CC2)ccc1Nc1ncc2c(n1)N(C1CCCC1)CC(F)(F)C(=O)N2C (stereo not drawn) [Compound 82, 4-((9-cyclopentyl-7,7-difluoro-5-methyl-6-oxo-6,7,8,9-tetrahydro-5H-pyrimido[4,5-b][1,4]diazepin-2-yl)amino)-N-(1-(3-(4-(2-(2,6-dioxopiperidin-3-yl)-1-oxoisoindolin-5-yl)piperazin-1-yl)propanoyl)piperidin-4-yl)-3-methoxybenzamide] | ++ (++<0.6) | < 0.03 | > 10 |
| COc1cc(C(=O)NN2CCC(N3CC4(CCN(c5cc6c(cc5F)C(=O)N(C5CCC(=O)NC5=O)C6=O)CC4)C3)CC2)ccc1Nc1ncc2c(n1)N(C(C)C)CC(F)(F)C(=O)N2C (stereo not drawn) [Compound 216, 4-((7,7-difluoro-9-isopropyl-5-methyl-6-oxo-6,7,8,9-tetrahydro-5H-pyrimido[4,5-b][1,4]diazepin-2-yl)amino)-N-(4-(7-(2-(2,6-dioxopiperidin-3-yl)-6-fluoro-1,3-dioxoisoindolin-5-yl)-2,7-diazaspiro[3.5]nonan-2-yl)piperidin-1-yl)-3-methoxybenzamide] | ++ (++<0.6) | < 0.2 | 27 |
| COc1cc(C(=O)NN2CCC(CN3CCN(c4cccc5c4C(=O)N(C4CCC(=O)NC4=O)C5=O)CC3)C(F)(F)C2)ccc1Nc1ncc2c(n1)N(C(C)C)CC(F)(F)C(=O)N2C (stereo not drawn) [Compound 157, 4-((7,7-difluoro-9-isopropyl-5-methyl-6-oxo-6,7,8,9-tetrahydro-5H-pyrimido[4,5-b][1,4]diazepin-2-yl)amino)-N-(4-((4-(2-(2,6-dioxopiperidin-3-yl)-1,3-dioxoisoindolin-4-yl)piperazin-1-yl)methyl)-3,3-difluoropiperidin-1-yl)-3-methoxybenzamide] | ++ (++<0.6) | < 0.1 | > 10 |

Further lines, with some results ahead:

| Activity: ratio of the luminescense value of each Exemplary Compound treatment group to DMSO treatment group (PLK1) | Structure (SMILES) | IC50 (NCI-H526 cell line) [µM] | IC50 (MRC-5 cell line) [µM] |
| --- | --- | --- | --- |
| ++ (++<0.6) | COc1cc(C(=O)N[C@H]2CC[C@H](N3CCN(CCCNc4cccc5c4C(=O)N(C4CCC(=O)NC4=O)C5=O)CC3)CC2)c(F)cc1Nc1ncc2c(n1)N(C1CCCC1)CC(F)(F)C(=O)N2C (stereo partly drawn) [Compound 197, 4-((9-cyclopentyl-7,7-difluoro-5-methyl-6-oxo-6,7,8,9-tetrahydro-5H-pyrimido[4,5-b][1,4]diazepin-2-yl)amino)-N-((1r,4r)-4-(4-(3-((2-(2,6-dioxopiperidin-3-yl)-1,3-dioxoisoindolin-4-yl)amino)propyl)piperazin-1-yl)cyclohexyl)-2-fluoro-5-methoxybenzamide] | < 0.05 | 18 |
| ++ (++<0.6) | COc1cc(C(=O)NN2CCC(CCN3CCN(c4cccc5c4C(=O)N(C4CCC(=O)NC4=O)C5=O)CC3)C2)ccc1Nc1ncc2c(n1)N(C1CCCC1)CC(F)(F)C(=O)N2C (stereo not drawn) [Compound 151, 4-((9-cyclopentyl-7,7-difluoro-5-methyl-6-oxo-6,7,8,9-tetrahydro-5H-pyrimido[4,5-b][1,4]diazepin-2-yl)amino)-N-(3-(2-(4-(2-(2,6-dioxopiperidin-3-yl)-1,3-dioxoisoindolin-4-yl)piperazin-1-yl)ethyl)pyrrolidin-1-yl)-3-methoxybenzamide] | < 0.05 | > 10 |
| ++ (++<0.6) | COc1cc(C(=O)NC2CCN(C(=O)CCN3CCN(c4cccc5c4C(=O)N(C4CCC(=O)NC4=O)C5=O)CC3)CC2)c(C(F)(F)F)cc1Nc1ncc2c(n1)N(C1CCCC1)CC(F)(F)C(=O)N2C (stereo not drawn) [Compound 119, 4-((9-cyclopentyl-7,7-difluoro-5-methyl-6-oxo-6,7,8,9-tetrahydro-5H-pyrimido[4,5-b][1,4]diazepin-2-yl)amino)-N-(1-(3-(4-(2-(2,6-dioxopiperidin-3-yl)-1,3-dioxoisoindolin-4-yl)piperazin-1-yl)propanoyl)piperidin-4-yl)-5-methoxy-2-(trifluoromethyl) benzamide] | < 0.2 | > 10 |
| +++ (+++: <0.3) | COc1cc(C(=O)NC2CCN(C(=O)COC3CCN(c4cccc5c4C(=O)N(C4CCC(=O)NC4=O)C5=O)CC3)CC2)ccc1Nc1ncc2c(n1)N(C1CCCC1)CC(F)(F)C(=O)N2C (stereo not drawn) [Compound 79, 4-((9-cyclopentyl-7,7-difluoro-5-methyl-6-oxo-6,7,8,9-tetrahydro-5H-pyrimido[4,5-b][1,4]diazepin-2-yl)amino)-N-(1-(2-((1-(2-(2,6-dioxopiperidin-3-yl)-1,3-dioxoisoindolin-4-yl)piperidin-4-yl)oxy)acetyl)piperidin-4-yl)-3-methoxybenzamide] | < 0.1 | > 10 |
| +++ (+++: <0.3) | COc1cc(C(=O)NC2CCN(C(=O)CCC3CCN(c4cccc5c4C(=O)N(C4CCC(=O)NC4=O)C5=O)CC3)CC2)ccc1Nc1ncc2c(n1)N(C1CCCC1)CC(F)(F)C(=O)N2C (stereo not drawn) [Compound 62, 4-((9-cyclopentyl-7,7-difluoro-5-methyl-6-oxo-6,7,8,9-tetrahydro-5H-pyrimido[4,5-b][1,4]diazepin-2-yl)amino)-N-(1-(3-(1-(2-(2,6-dioxopiperidin-3-yl)-1,3-dioxoisoindolin-4-yl)piperidin-4-yl)propanoyl)piperidin-4-yl)-3-methoxybenzamide] | < 0.1 | > 10 |
